In ChEMBL document CHEMBL1158243, “Hydroxycornexistin: A New Phytotoxin from Paecilomyces variotii” (J Nat Prod, 1996):
Activity calls are given as the source filed them. The rule behind the calls is not given here.

Tests used:
Assay type in all cases: functional, organism-based
Ipomoea hederacea [1] = experiment: Herbicidal activity against Ipomoea hederacea assessed as plant death at 31.25 ppm after 2 weeks
Ipomoea hederacea [2] = experiment: Herbicidal activity against Ipomoea hederacea assessed as plant death at 7.81 ppm after 2 weeks
Sorghum bicolor [3] = experiment: Herbicidal activity against Sorghum bicolor assessed as plant death at 15.63 ppm after 2 weeks
Sorghum bicolor [4] = experiment: Herbicidal activity against Sorghum bicolor assessed as plant death at 7.81 ppm after 2 weeks
Xanthium strumarium [5] = experiment: Herbicidal activity against Xanthium strumarium assessed as plant death at 7.81 ppm after 2 weeks
Triticum aestivum [6] = experiment: Herbicidal activity against Triticum aestivum assessed as plant death at 15.63 ppm after 2 weeks
Echinochloa crus-galli = experiment: Herbicidal activity against Echinochloa crus-galli assessed as plant death at 7.81 ppm after 2 weeks
Zea mays [7] = experiment: Herbicidal activity against Zea mays assessed as plant death at 7.81 ppm after 2 weeks
Ipomoea hederacea [8] = experiment: Herbicidal activity against Ipomoea hederacea assessed as plant death at 15.63 ppm after 2 weeks
Abutilon theophrasti = experiment: Herbicidal activity against Abutilon theophrasti assessed as plant death at 7.81 ppm after 2 weeks
Amaranthus [9] = experiment: Herbicidal activity against Amaranthus sp. assessed as plant death at 7.81 ppm after 2 weeks
Amaranthus [10] = experiment: Herbicidal activity against Amaranthus sp. assessed as plant death at 31.25 ppm after 2 weeks
Amaranthus [11] = experiment: Herbicidal activity against Amaranthus sp. assessed as plant death at 15.63 ppm after 2 weeks
Avena sativa [12] = experiment: Herbicidal activity against Avena sativa assessed as plant death at 31.25 ppm after 2 weeks
Triticum aestivum [13] = experiment: Herbicidal activity against Triticum aestivum assessed as plant death at 7.81 ppm after 2 weeks
Digitaria sanguinalis = experiment: Herbicidal activity against Digitaria sanguinalis assessed as plant death at 7.81 ppm after 2 weeks
Avena sativa [14] = experiment: Herbicidal activity against Avena sativa assessed as plant death at 15.63 ppm after 2 weeks
Avena sativa [15] = experiment: Herbicidal activity against Avena sativa assessed as plant death at 7.81 ppm after 2 weeks
Fallopia convolvulus [16] = experiment: Herbicidal activity against Fallopia convolvulus assessed as plant death at 15.63 ppm after 2 weeks
Setaria faberi [17] = experiment: Herbicidal activity against Setaria faberi assessed as plant death at 15.63 ppm after 2 weeks
Setaria faberi [18] = experiment: Herbicidal activity against Setaria faberi assessed as plant death at 7.81 ppm after 2 weeks
Xanthium strumarium [19] = experiment: Herbicidal activity against Xanthium strumarium assessed as plant death at 31.25 ppm after 2 weeks
Fallopia convolvulus [20] = experiment: Herbicidal activity against Fallopia convolvulus assessed as plant death at 31.25 ppm after 2 weeks
Zea mays [21] = experiment: Herbicidal activity against Zea mays assessed as plant death at 15.63 ppm after 2 weeks
Sorghum bicolor [22] = experiment: Herbicidal activity against Sorghum bicolor assessed as plant death at 31.25 ppm after 2 weeks

Which results are given for `C/C=C1/CC2=C(C(=O)OC2=O)[C@H](CCC)[C@H](O)C(=O)C[C@@H]1O`?
Activity (Ipomoea hederacea [1]): inactive; Activity (Ipomoea hederacea [2]): inactive; Activity (Sorghum bicolor [3]): inactive; Activity (Sorghum bicolor [4]): inactive; Activity (Xanthium strumarium [5]): inactive; Activity (Triticum aestivum [6]): inactive; Activity (Echinochloa crus-galli): inactive; Activity (Zea mays [7]): inactive; Activity (Ipomoea hederacea [8]): inactive; Activity (Abutilon theophrasti): inactive; Activity (Amaranthus [9]): inactive; Activity (Amaranthus [10]): inactive; Activity (Amaranthus [11]): inactive; Activity (Avena sativa [12]): Active; Activity (Triticum aestivum [13]): inactive; Activity (Digitaria sanguinalis): inactive; Activity (Avena sativa [14]): inactive; Activity (Avena sativa [15]): inactive

How did the Activity (Fallopia convolvulus [16]) turn out when `CCC[C@H]1C2=C(C/C(=C/CO)[C@@H](O)CC(=O)[C@H]1O)C(=O)OC2=O` was run?
Its Activity is “Active”.

And the Activity (Ipomoea hederacea [2])?
The Activity was “inactive”.

And the Activity (Sorghum bicolor [3])?
The Activity was “inactive”.

What about the Activity (Sorghum bicolor [4]) of the same compound?
The Activity was “inactive”.

And the Activity (Setaria faberi [17])?
The Activity was “inactive”.

What about the Activity (Setaria faberi [18]) of the same compound?
Its Activity is “inactive”.

What about the Activity (Echinochloa crus-galli) of the same compound?
The Activity was “inactive”.

What about the Activity (Zea mays [7]) of the same compound?
Its Activity is “inactive”.

What about the Activity (Xanthium strumarium [19]) of the same compound?
The Activity was “Active”.

What about the Activity (Fallopia convolvulus [20]) of the same compound?
The Activity was “Active”.

What about the Activity (Zea mays [21]) of the same compound?
Its Activity is “inactive”.

What about the Activity (Ipomoea hederacea [8]) of the same compound?
Its Activity is “inactive”.

And the Activity (Amaranthus [9])?
Its Activity is “inactive”.

And the Activity (Sorghum bicolor [22])?
Its Activity is “inactive”.
